Our source for the IC50 values is US20140066431A1, “Benzoxazepines as Inhibitors of PI3K/mTOR and Methods of Their Use and Manufacture” (Exelixis, Inc., priority 2010, published 2014).

This experiment deals with SK-BR-3 (PI3Kα wild-type). Description: pAKT (T308) ELISA assay, SK-BR-3. It counts as cell-based. Particulars: Homo sapiens, PI3Kαwt, hereg, read-out: Cellular pAKT (T308) IC50 SK-BR-3. How it is done:
In another embodiment, the pAKT ELISA Assay was performed by seeding cells onto 96-well plates (Corning, 3904) in their respective growth media at the densities listed in Table 3. Cells were incubated at 37° C., 5% CO2 for 48 h (except MDA-MB-453 cells which were cultured in the absence of CO2). Compounds were serially diluted in DMSO and subsequently diluted in serum-free DMEM. Test compounds were added to cells in serum-free DMEM at a final concentration of 0.3% DMSO and incubated for 3 h. Cells were lysed with 130 μL of ice-cold RIPA lysis buffer (50 mM Tris-HCl, pH 7.5; 0.5% sodium deoxycholic acid; 1% Triton X-100; 0.1% SDS; 150 mM NaCl) with protease and phosphatase inhibitors (1 mM EDTA, 1 mM NaF, 20 mM β-glycerophosphate, 1 mM Na-orthovanadate, Complete-Mini EDTA-free, Roche, 11836170001, and Phosphatase Inhibitor Cocktail I, Sigma, P2850), directly in 96-well plates. Cells were lysed on ice for 60-120 min at 4° C. The supernatants were added directly to capture ELISA plates previously pre-coated with rabbit anti-AKT capture antibody. […] The wells were measured for luminescence using a Wallac plate reader at wavelength of 560 nm. After normalization of pAKT signal to total AKT1 signal, IC50 values were determined relative to the DMSO-treated control.

For orientation: IC50 means the point on the concentration scale where inhibition reaches its midpoint. With `Cc1cc(C(C)Nc2ccccc2)c2nc(N3CCOCC3)cc(=O)n2c1` (stereo not shown) [TGX-221, 7-methyl-2-(4-morpholinyl)-9-[1-(phenylamino)ethyl]-4H-pyrido[1,2-a]pyrimidin-4-one], the IC50 is above 30 µM.
